From paper PMC10418759, “New Highly Selective BACE1 Inhibitors and Their Effects on Dendritic Spine Density In Vivo” (International Journal of Molecular Sciences, 2023)

Assays:
[1] = molecular target: T1, recombinant human BACE2 ectodomain (Homo sapiens, UniProt Q9Y5Z0); test: BACE2 biochemical enzymatic assay (ELISA-based, APP-derived Swedish-mutation peptide substrate); conditions: 1 h at 37 °C
T1 sequence (Q9Y5Z0 63-473 limits assumed): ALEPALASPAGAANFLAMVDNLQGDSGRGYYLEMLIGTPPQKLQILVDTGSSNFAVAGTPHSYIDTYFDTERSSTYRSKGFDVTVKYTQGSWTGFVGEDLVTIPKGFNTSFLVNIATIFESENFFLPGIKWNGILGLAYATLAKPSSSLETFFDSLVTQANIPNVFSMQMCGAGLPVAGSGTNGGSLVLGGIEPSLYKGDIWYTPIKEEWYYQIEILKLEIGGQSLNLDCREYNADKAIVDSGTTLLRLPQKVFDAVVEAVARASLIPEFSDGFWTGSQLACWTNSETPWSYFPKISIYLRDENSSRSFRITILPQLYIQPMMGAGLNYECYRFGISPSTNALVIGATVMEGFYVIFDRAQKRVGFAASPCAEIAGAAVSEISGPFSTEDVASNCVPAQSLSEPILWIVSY
Protocol: (§1) BACE1 enzymatic activity was determined in a homogeneous time-resolved fluorescence (HTRF) assay, and BACE2 enzymatic activity was determined in an enzyme-linked immunosorbent assay (ELISA)-based assay using an APP-derived peptide that contains the K670N + M671L (Swedish) double mutation of the APP β secretase cleavage site as a substrate. The recombinant human BACE1 (R&D Systems, MN, USA) was incubated (2 h at 25 °C) with the substrate and the inhibitor (9 or 10 concentrations at 1/5 steps from 10 μM). Fluorescence intensity was measured (excitation wavelength: 320 nm, measuring wavelength: 620 nm and 665 nm) using RUBYstar (BMG LABTECH, Ortenberg, Germany). The recombinant human BACE2 ectodomain was incubated (1 h at 37 °C) with the substrate and the inhibitor (10 concentrations at 1/4 steps from 25 μM). The count of chemi-luminescence in each well was measured using ARVOTM MX 1420 Multilabel Counter (PerkinElmer, Shelton, CT, USA). The inhibitory potential of the compounds on the enzymatic activity of BACE1 and BACE2 was determined by performing concentration–response curves.

[2] = test system: dendritic spines of layer V pyramidal neurons, somatosensory cortex; test: Longitudinal in vivo two-photon dendritic spine imaging in GFP-M mice; design: species or system mouse; conditions: inhibitor food pellets for 21 days, compared to vehicle
cognition = conditions: in vivo; cited from earlier work
[3] = test system: soluble Seizure protein 6 (sSez6); test: Soluble Sez6 levels in the mouse brain (Western blot); format: in vivo; conditions: C57BL/6 mice, food pellets with inhibitor for one week, soluble brain fraction; level reduced to % of vehicle
Source text: C57BL/6 mice (CLEA Japan Inc., Tokyo, Japan) were fed with food pellets containing 0.02% elenbecestat, 0.0125% Shionogi compound 1, and 0.025% Shionogi compound 2 for one week (performed at AAALAC compatible facilities). Mouse cerebral hemispheres were removed and frozen immediately with liquid nitrogen. The frozen cerebral hemispheres were transferred to a homogenized tube containing ceramic beads in an 8-fold volume of the weight of an extraction buffer (containing 0.4% DEA (diethylamine), 50 mmol/L NaCl, completed with protease inhibitor (Roche, Basel, Switzerland)) and incubated on ice for 20 min. […] The brain Aβ40 was measured using Human/Rat Amyloid beta 40 ELISA Kit (FUJIFILM Wako Pure Chemical Corporation, Osaka, Japan). […]
The brain samples were heated at 95 °C in 1% SDS sample buffer with 100 mM DTT for 5 min, separated by SDS-PAGE on 4–20% precast polyacrylamide gels (Biorad, Feldkirchen, Germany), and transferred to PVDF membranes (Biorad, Feldkirchen, Germany). […] After final washes with PBST, the membranes were incubated with ECL prime for a few minutes, and signal was detected with LAS-3000 (FUJIFILM Wako Pure Chemical Corporation, Osaka, Japan). Densitometry quantification of Western blot signal was conducted using Multi Gauge V3.1 software (FUJIFILM Wako Pure Chemical Corporation, Osaka, Japan).

recombinant human BACE1 [4] = test: BACE1 biochemical enzymatic assay (HTRF, APP-derived Swedish-mutation peptide substrate); conditions: selectivity for BACE1 over BACE2 from IC50 values
Protocol: as §1, with “The recombinant human BACE2 ectodomain was incubated (1 h at 37 °C) with the substrate and the inhibitor (10 concentrations at 1/4 steps from 25 μM). The count of chemi-luminescence in each well was measured using ARVOTM MX 1420 Multilabel Counter (PerkinElmer, Shelton, CT, USA).” left out

recombinant human BACE1 [5] = molecular target: T2, recombinant human BACE1 (Homo sapiens, UniProt P56817); test: as above; conditions: HTRF, 2 h at 25 °C, APP-derived peptide substrate
T2 construct: purchased R&D Systems
Protocol: as §1, with “The recombinant human BACE2 ectodomain was incubated (1 h at 37 °C) with the substrate and the inhibitor (10 concentrations at 1/4 steps from 25 μM). The count of chemi-luminescence in each well was measured using ARVOTM MX 1420 Multilabel Counter (PerkinElmer, Shelton, CT, USA).” left out

brain Aβ40 = test: Brain Aβ levels in mice fed inhibitor pellets (Aβ40 ELISA, soluble brain fraction); format: in vivo, mouse; conditions: C57BL/6 mice, food pellets with inhibitor for one week, level reduced to % of vehicle
Source text: C57BL/6 mice (CLEA Japan Inc., Tokyo, Japan) were fed with food pellets containing 0.02% elenbecestat, 0.0125% Shionogi compound 1, and 0.025% Shionogi compound 2 for one week (performed at AAALAC compatible facilities). Mouse cerebral hemispheres were removed and frozen immediately with liquid nitrogen. The frozen cerebral hemispheres were transferred to a homogenized tube containing ceramic beads in an 8-fold volume of the weight of an extraction buffer (containing 0.4% DEA (diethylamine), 50 mmol/L NaCl, completed with protease inhibitor (Roche, Basel, Switzerland)) and incubated on ice for 20 min. Thereafter, the hemispheres were homogenized using MP BIO FastPrep-24 (MP-Biomedicals, Irvine, CA, USA) with Lysing matrix D 1.4 mm ceramic beads (20 s at 6 m/s). After spinning for 1 min, the supernatant was transferred to a centrifugation tube and centrifuged at 221,000× g, 4 °C, for 50 min. After centrifugation, the supernatant was used for measuring the brain Aβ40. The brain Aβ40 was measured using Human/Rat Amyloid beta 40 ELISA Kit (FUJIFILM Wako Pure Chemical Corporation, Osaka, Japan). The assay procedure was conducted according to instructions.

[6] = test system: dendritic spines of layer V pyramidal neurons, somatosensory cortex; conditions: mouse, in vivo; cited from earlier work

T2 sequence (P56817 46-501): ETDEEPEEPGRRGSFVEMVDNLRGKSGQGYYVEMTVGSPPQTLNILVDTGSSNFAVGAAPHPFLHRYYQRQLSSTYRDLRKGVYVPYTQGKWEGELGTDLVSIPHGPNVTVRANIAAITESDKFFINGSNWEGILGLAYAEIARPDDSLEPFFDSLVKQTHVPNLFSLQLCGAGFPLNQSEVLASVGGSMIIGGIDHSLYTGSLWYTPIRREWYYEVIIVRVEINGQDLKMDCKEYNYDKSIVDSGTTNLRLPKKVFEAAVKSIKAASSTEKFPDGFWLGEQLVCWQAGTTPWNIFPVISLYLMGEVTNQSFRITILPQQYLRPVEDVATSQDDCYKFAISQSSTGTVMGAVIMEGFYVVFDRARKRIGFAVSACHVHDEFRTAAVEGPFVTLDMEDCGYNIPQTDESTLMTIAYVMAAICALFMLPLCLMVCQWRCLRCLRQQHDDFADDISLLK

| SMILES | IC50 [1] | Dendritic spine density [2] | Cognitive worsening in the clinic (cognition) | Brain sSez6 level compared to vehicle [3] | BACE1/BACE2 (fold) (recombinant human BACE1 [4]) | IC50 (recombinant human BACE1 [5]) | Brain Aβ level compared to vehicle (brain Aβ40) | Dendritic spine plasticity in the cerebral cortex [6] |
| --- | --- | --- | --- | --- | --- | --- | --- | --- |
| C[C@H]1OC[C@]2(c3cc(NC(=O)c4cnc(C(F)F)cn4)ccc3F)N=C(N)SC[C@H]12 [Elenbecestat, elenbecestat] | 46 nM | do not alter dendritic spine density | did not show cognitive worsening | 27% | 12 fold | 3.9 nM | 46% | – |
| CN1C(=N)N[C@](C)(c2cc(NC(=O)c3ccc(F)cn3)ccc2F)CS1(=O)=O [verubecesat, verubecestat] | – | – | – | – | – | – | – | significant decrease in dendritic spine plasticity |
